Results published in patent US7132417B2, “2-phenyl-1-[4-(2-aminoethoxy)-benzyl]-indoles as estrogenic agents” (Wyeth, priority 1996, dated 2006).
Counter-ions that a name gives are not always drawn.

How the values were obtained:
estrogen receptor [1] = biological target: T1, estrogen receptor (Homo sapiens, UniProt P03372); experiment: In vitro estrogen receptor binding assay ([3H]-17β-estradiol competition); design: expressed in transfected cells; host or cells: CHO cells (100,000 g cytosol); settings: read-out: Receptor Binding IC50's
T1 sequence (P03372 1-595): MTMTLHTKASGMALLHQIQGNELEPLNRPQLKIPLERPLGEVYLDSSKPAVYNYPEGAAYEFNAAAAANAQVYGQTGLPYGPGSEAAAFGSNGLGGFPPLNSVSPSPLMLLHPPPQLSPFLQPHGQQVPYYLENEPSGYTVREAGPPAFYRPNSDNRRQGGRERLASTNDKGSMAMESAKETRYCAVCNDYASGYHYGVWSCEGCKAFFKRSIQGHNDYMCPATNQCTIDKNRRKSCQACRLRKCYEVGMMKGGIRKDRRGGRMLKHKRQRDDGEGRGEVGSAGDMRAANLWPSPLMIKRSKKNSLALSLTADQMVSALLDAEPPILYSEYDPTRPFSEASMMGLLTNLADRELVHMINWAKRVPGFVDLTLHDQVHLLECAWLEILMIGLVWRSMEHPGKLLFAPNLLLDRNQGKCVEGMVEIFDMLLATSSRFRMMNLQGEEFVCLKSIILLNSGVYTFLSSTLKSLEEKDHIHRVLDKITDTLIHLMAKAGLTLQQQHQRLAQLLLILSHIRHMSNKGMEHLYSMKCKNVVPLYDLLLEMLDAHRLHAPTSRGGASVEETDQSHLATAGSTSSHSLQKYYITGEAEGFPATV
Procedure: In Vitro Estrogen Receptor Binding Assay
CHO cells overexpressing the estrogen receptor were grown in 150 mm^2 dishes in DMEM+10% dextran coated charcoal, stripped fetal bovine serum. The plates were washed twice with PBS and once with 10 mM Tris-HCl, pH 7.4, 1 mM EDTA. Cells were harvested by scraping the surface and then the cell suspension was placed on ice. Cells were disrupted with a hand-held motorized tissue grinder using two, 10-second bursts. […] The cytosol was then frozen and stored at −80° C. Protein concentration of the cytosol was estimated using the BCA assay with reference standard protein.
100 uG/100 uL of the receptor preparation was aliquoted per well. […] The plate was incubated at room temperature for 2.5 h. […] 200 uL of the supernatant solution was then removed for scintillation counting. Samples were counted to 2% or 10 minutes, whichever occurs first. […] Also, wells containing radioactivity but no cytosol were processed with charcoal to estimate unremovable DPM of [^3H]
Counts per minute (CPM) of radioactivity were automatically converted to disintegrated per minute (DPM) by the Beckman LS 7500 Scintillation Counter using a set of quenched standards to generate a H No. for each sample.
For the generation of IC50 curves, % binding is plotted vs compound. […] For a description of these methods, see Hulme, E. C., ed. […] Receptor-Ligand Interactions: A Practical Approach. IRL Press, New York. (see especially chapter 8).

estrogen receptor [2] = biological target: T1, estrogen receptor; experiment: 2X VIT ERE infection (luciferase) assay; format: cell-based; design: expressed in transfected cells; host or cells: Chinese Hamster Ovary cells (CHO), stably transfected; settings: for Infection Luciferase Activity 1 uM + 17β estradiol: 1 uM compound + 1 nM 17β-estradiol (test for estrogen antagonism); for Infection Luciferase Activity 1 uM: 1 uM compound, percentage of activity as compared to 17β-estradiol
Procedure: Method No. 18 2X VIT ERE Infection Assay Cell Maintenance and Treatment
Chinese Hamster Ovary cells (CHO) which had been stably transfected with the human estrogen receptor were maintained in DMEM+10% fetal bovine serum (FBS). 48 h prior to treatment the growth medium was replaced with DMEM lacking phenol red +10% dextran coated charcoal stripped FBS (treatment medium). Cells were plated at a density of 5000 cells/well in 96-well plates containing 200 µL of medium/well.
Reporter DNA (Promega plasmid pGL2 containing two tandem copies of the vitellogenin ERE in front of the minimal thymidine kinase promoter driving the luciferase gene) was combined with the B-galactosidase expression plasmid pCH110 (Pharmacia) and carrier DNA (pTZ18U) in the following ratio:
20 uL of this mixture was added to each well of cells and remained on the cells for 16 h. […] Each treatment condition was performed on 8 wells (n=8) which were incubated for 24 h prior to the luciferase assay.
After removing the PBS, 25 uL of Promega lysis buffer was added to each well and allowed to stand at room temperature for 15 min, followed by 15 min at −80° C. and 15 min at 37° C. 20 uL of lysate was transferred to an opaque 96 well plate for luciferase activity evaluation and the remaining lysate (5 uL) was used for the B-galactosidase activity evaluation (normalize transfection). The luciferan substrate (Promega) was added in 100 uL aliquots to each well automatically by the luminometer and the light produced (relative light units) was read 10 seconds after addition.
To the remaining 5 uL of lysate 45 uL of PBS was added. Then 50 uL of Promega B-galactosidase 2× assay buffer was added, mixed well and incubated at 37° C. for 1 hour. A plate containing a standard curve (0.1 to 1.5 milliunits in triplicate) was set up for each experimental run. The plates were analyzed on a Molecular Devices spectrophotometric plate reader at 410 nm. The optical densities for the unknown were converted to milliunits of activity by mathematical extrapolation from the standard curve.
The luciferase data was generated as relative light units (RLUs) accumulated during a 10 second measurement and automatically transferred to a JMP (SAS Inc) file where background RLUs were subtracted. The B-galactosidase values were automatically imported into the file and these values were divided into the RLUs to normalize the data. The mean and standard deviations were determined from a n=8 for each treatment. […] These techniques are described by Tzukerman, M. T., Esty, A., Santiso-Mere, D., Danielian, P., Parker, M. G., Stein, R. B., Pike, J. W. and McDonnel, D. P. (1994).

SMILES	IC50 (estrogen receptor [1]) [nM]	Infection Luciferase Activity 1 uM + 17β estradiol (estrogen receptor [2]) [%]	Infection Luciferase Activity 1 uM (estrogen receptor [2]) [%]
Cc1c(-c2ccc(O)cc2)n(Cc2ccc(OCCCN3CCCCC3)cc2)c2ccc(O)cc12 [Example No. 166, 2-(4-Hydroxy-phenyl)-3-methyl-1-{4-[3-(piperidin-1-yl)-propoxy]-benzyl}-1H-indol-5-ol]	99	–	–
Cc1c(-c2ccc(O)cc2)n(Cc2ccc(OCCN3CCCCC3)cc2)c2ccccc12 [compound 86, 4-{3-Methyl-1-[4-(2-piperidin-1-yl-ethoxy)-benzyl]-1H-indol-2-yl}-phenol hydrochloride]	–	2	−5
COc1ccc2c(c1)c(C)c(-c1ccc(O)cc1)n2Cc1ccc(OCCN2CCCCC2)cc1 [compound 88, 4-{5-Methoxy-3-methyl-1-{4-[2-(piperidin-1-yl)-ethoxy]-benzyl}-1H-indol-2-yl}-phenol]	–	44	4
COc1ccc(-c2c(C)c3cc(O)ccc3n2Cc2ccc(OCCN3CCCCC3)cc2)cc1 [compound 89, 2-(4-methoxy-phenyl)-3-methyl-1-{4-[2-(piperidin-1-yl)-ethoxy]-benzyl}-1H-indol-5-ol]	–	18	16
COc1ccc(-c2c(C)c3cc(OC)ccc3n2Cc2ccc(OCCN3CCCCC3)cc2)cc1 [compound 90, 5-Methoxy-2-(4-methoxy-phenyl)-3-methyl-1-[4-(2-piperidin-1-yl-ethoxy)-benzyl]-1H-indole]	–	58	3
CCOc1ccc(-c2c(C)c3cc(O)ccc3n2Cc2ccc(OCCN3CCCCC3)cc2)cc1 [compound 92, 2-(4-Ethoxy-phenyl)-3-methyl-1-[4-(2-piperidin-1-yl-ethoxy)-benzyl]-1H-indol-5-ol]	–	−2	−4
CCOc1ccc(-c2c(C)c3cc(O)ccc3n2Cc2ccc(OCCN3CCCCCC3)cc2)cc1 [compound 93, 1-[4-(2-Azepan-1-yl-ethoxy)-benzyl]-2-(4-ethoxy-phenyl)-3-methyl-1H-indol-5-ol]	–	−2	−3
Cc1c(-c2ccc(O)cc2)n(Cc2ccc(OCCN3CCCCC3)cc2)c2ccc(F)cc12 [compound 94, 4-{5-Fluoro-3-methyl-1-[4-(2-piperidin-1-yl-ethoxy)-benzyl]-1H-indol-2-yl}-phenol]	–	15	−5
Cc1c(-c2ccc(O)cc2)n(Cc2ccc(OCCN3CCCC3)cc2)c2ccc(O)cc12 [compound 96, 2-(4-Hydroxy-phenyl)-3-methyl-1-[4-(2-pyrollidin-1-yl-ethoxy)-benzyl]-1H-indol-5-ol]	–	8	12
CCCCN(C)CCOc1ccc(Cn2c(-c3ccc(O)cc3)c(C)c3cc(O)ccc32)cc1 [compound 105, 1-{4-[2-(Butyl-methyl-amino)-ethoxy]-benzyl}-2-(4-hydroxy-phenyl)-3-methyl-1H-indol-5-ol]	28	–	–
Cc1c(-c2ccc(O)cc2)n(Cc2ccc(OCCN3CCCC(C)C3)cc2)c2ccc(O)cc12 (stereo not drawn) [compound 109, 2-(4-Hydroxy-phenyl)-3-methyl-1-{4-[2-(3-methyl-piperdin-1-yl)-ethoxy]-benzyl}-1H-indol-5-ol]	170	–	–
Cc1c(-c2ccc(F)cc2)n(Cc2ccc(OCCN3CCCCC3)cc2)c2ccc(O)cc12 [compound 116, 2-(4-Fluoro-phenyl)-3-methyl-1-[4-(2-piperidine-1-yl-ethoxy)-benzyl]-1H-indol-5-ol]	–	1	−1
Cc1c(-c2ccc(F)cc2)n(Cc2ccc(OCCN3CCCCCC3)cc2)c2ccc(O)cc12 [compound 117, 1-[4-(2-Azepan-1-yl-ethoxy)-benzyl]-2-(4-fluoro-phenyl)-3-methyl-1H-indol-5-ol]	–	1	0
Cc1c(-c2ccc3c(c2)OCO3)n(Cc2ccc(OCCN3CCCCC3)cc2)c2ccc(O)cc12 [compound 119, 2-Benzo[1,3]dioxol-5-yl-3-methyl-1-[4-(2-piperidin-1-yl-ethoxy)-benzyl]-1H-indol-5-ol]	–	−1	−1
Cc1c(-c2ccc(C(F)(F)F)cc2)n(Cc2ccc(OCCN3CCCCC3)cc2)c2ccc(O)cc12 [compound 123, 3-Methyl-1-[4-(2-piperidin-1-yl-ethoxy)-benzyl]-2-(4-trifluoromethyl-phenyl)-1H-indol-5-ol]	170	–	–
COc1ccc(-c2c(C)c3cc(O)ccc3n2Cc2ccc(OCCN3CCCCC3)cc2)c(OC)c1 [compound 126, 2-(2,4-Dimethoxy-phenyl)-3-methyl-1-[4-(2-piperidin-1-yl-ethoxy)-benzyl]-1H-indol-5-ol]	–	0	−1
Cc1c(-c2cccc(O)c2)n(Cc2ccc(OCCN3CCCCC3)cc2)c2ccc(O)cc12 [compound 127, 2-(3-Hydroxy-phenyl)-3-methyl-1-[4-(2-piperidin-1-yl-ethoxy)-benzyl]-1H-indol-5-ol]	19	–	–
Cc1c(-c2ccc(O)c(F)c2)n(Cc2ccc(OCCN3CCCCC3)cc2)c2ccc(O)cc12 [compound 129, 2-(3-Fluoro-4-hydroxy-phenyl)-3-methyl-1-[4-(2-piperidin-1-yl-ethoxy)-benzyl]-1H-indol-5-ol]	5.5	–	–
Cc1c(-c2ccc(O)c(F)c2)n(Cc2ccc(OCCN3CCCCCC3)cc2)c2ccc(O)cc12 [compound 130, 2-(3-Fluoro-4-hydroxy-phenyl)-3-methyl-1-[4-(azepan-1-yl-ethoxy)-benzyl]-1H-indol-5-ol]	13	–	–
COc1cccc(-c2c(C)c3cc(O)ccc3n2Cc2ccc(OCCN3CCCCC3)cc2)c1 [compound 131, 2-(3-Methoxy-phenyl)-3-methyl-1-[4-(2-piperidin-1-yl-ethoxy)-benzyl]-1H-indole-5-ol]	120	–	–
Oc1ccc(-c2c(Cl)c3cc(O)ccc3n2Cc2ccc(OCCN3CCCC3)cc2)cc1 [compound 133, 3-Chloro-2-(4-hydroxy-phenyl)-1-[4-(2-pyrrolidin-1-yl-ethoxy)-benzyl]-1H-indol-5-ol]	4	–	–
